From ChEMBL document CHEMBL1152527, “Tessaric acid derivatives induce G2/M cell cycle arrest in human solid tumor cell lines” (2009)
The source made the active and inactive calls. No cut-off for these calls is given here.

Assays:
Type in all cases: functional
[1] = tested on: SW1573; test: Cell cycle arrest in human SW1573 cells assessed as decrease in accumulation at S phase at 15 uM after 24 hrs by propidium iodide staining-based FACS analysis
[2] = tested on: A2780; test: Growth inhibition of human A2780 cells after 48 hrs by sulforhodamine B assay; details: A2780, 48 h
[3] = tested on: T47D; test: Cell cycle arrest in human T47D cells assessed as accumulation at G2/M phase at 35 uM after 24 hrs by propidium iodide staining-based FACS analysis
[4] = tested on: HeLa; test: Cell cycle arrest in human HeLa cells assessed as decrease in accumulation at S phase at 15 uM after 24 hrs by propidium iodide staining-based FACS analysis
[5] = tested on: SW1573; test: Growth inhibition of human SW1573 cells after 48 hrs by sulforhodamine B assay; details: SW1573, 48 h
[6] = tested on: SW1573; test: Cell cycle arrest in human SW1573 cells assessed as decrease in accumulation at G0/G1 phase at 35 uM after 24 hrs by propidium iodide staining-based FACS analysis
[7] = tested on: WiDr; test: Cell cycle arrest in human WiDr cells assessed as accumulation at G2/M phase at 35 uM after 24 hrs by propidium iodide staining-based FACS analysis
[8] = tested on: SW1573; test: Cell cycle arrest in human SW1573 cells assessed as accumulation at S phase at 35 uM after 24 hrs by propidium iodide staining-based FACS analysis
[9] = tested on: SW1573; test: Cell cycle arrest in human SW1573 cells assessed as accumulation at G2/M phase at 35 uM after 24 hrs by propidium iodide staining-based FACS analysis
[10] = tested on: SW1573; test: Cell cycle arrest in human SW1573 cells assessed as accumulation at G2/M phase at 15 uM after 24 hrs by propidium iodide staining-based FACS analysis
[11] = tested on: HeLa; test: Cell cycle arrest in human HeLa cells assessed as accumulation at G2/M phase at 15 uM after 24 hrs by propidium iodide staining-based FACS analysis
[12] = tested on: T47D; test: Cell cycle arrest in human T47D cells assessed as increase in accumulation at sub G0 phase at 15 to 35 uM treated for 24 hrs measured after 24 hrs of drug washout by propidium iodide staining-based FACS analysis
[13] = tested on: T47D; test: Growth inhibition of human T47D cells after 48 hrs by sulforhodamine B assay
[14] = tested on: HBL-100; test: Growth inhibition of human HBL100 cells after 48 hrs by sulforhodamine B assay; details: HBL-100, 48 h
[15] = tested on: HeLa; test: Cell cycle arrest in human HeLa cells assessed as accumulation at G2/M phase at 35 uM after 24 hrs by propidium iodide staining-based FACS analysis
[16] = tested on: HeLa; test: Cell cycle arrest in human HeLa cells assessed as decrease in accumulation at G0/G1 phase at 35 uM after 24 hrs by propidium iodide staining-based FACS analysis
[17] = tested on: WiDr; test: Cell cycle arrest in human WiDr cells assessed as decrease in accumulation at S phase at 35 uM after 24 hrs by propidium iodide staining-based FACS analysis
[18] = tested on: T47D; test: Cell cycle arrest in human T47D cells assessed as decrease in accumulation at S phase at 35 uM after 24 hrs by propidium iodide staining-based FACS analysis
[19] = tested on: WiDr; test: Cell cycle arrest in human WiDr cells assessed as increase in accumulation at sub G0 phase at 15 to 35 uM treated for 24 hrs measured after 24 hrs of drug washout by propidium iodide staining-based FACS analysis
[20] = tested on: HeLa; test: Growth inhibition of human HeLa cells after 48 hrs by sulforhodamine B assay
[21] = tested on: HeLa; test: Cell cycle arrest in human HeLa cells assessed as accumulation at S phase at 35 uM after 24 hrs by propidium iodide staining-based FACS analysis
[22] = tested on: WiDr; test: Growth inhibition of human WiDr cells after 48 hrs by sulforhodamine B assay
[23] = tested on: HeLa; test: Cell cycle arrest in human HeLa cells assessed as minor accumulation at G2/M phase at 5 to 20 uM after 24 hrs by propidium iodide staining-based FACS analysis
[24] = tested on: WiDr; test: Cell cycle arrest in human WiDr cells assessed as minor accumulation at S phase at 5 to 20 uM after 24 hrs by propidium iodide staining-based FACS analysis
[25] = tested on: T47D; test: Cell cycle arrest in human T47D cells assessed as minor accumulation at S phase at 5 to 20 uM after 24 hrs by propidium iodide staining-based FACS analysis
[26] = tested on: SW1573; test: Cell cycle arrest in human SW1573 cells assessed as minor accumulation at G2/M phase at 5 to 20 uM after 24 hrs by propidium iodide staining-based FACS analysis
[27] = tested on: SW1573; test: Cell cycle arrest in human SW1573 cells assessed as minor accumulation at S phase at 5 to 20 uM after 24 hrs by propidium iodide staining-based FACS analysis
[28] = tested on: WiDr; test: Cell cycle arrest in human WiDr cells assessed as minor accumulation at G2/M phase at 5 to 20 uM after 24 hrs by propidium iodide staining-based FACS analysis
[29] = tested on: T47D; test: Cell cycle arrest in human T47D cells assessed as minor accumulation at G2/M phase at 5 to 20 uM after 24 hrs by propidium iodide staining-based FACS analysis
[30] = tested on: HeLa; test: Cell cycle arrest in human HeLa cells assessed as minor accumulation at S phase at 5 to 20 uM after 24 hrs by propidium iodide staining-based FACS analysis
[31] = tested on: SW1573; test: Cell cycle arrest in human SW1573 cells assessed as decrease in accumulation at S phase at 3 uM after 24 hrs by propidium iodide staining-based FACS analysis
[32] = tested on: HeLa; test: Cell cycle arrest in human HeLa cells assessed as accumulation at S phase at 6 uM after 24 hrs by propidium iodide staining-based FACS analysis
[33] = tested on: SW1573; test: Cell cycle arrest in human SW1573 cells assessed as accumulation at G2/M phase at 6 uM after 24 hrs by propidium iodide staining-based FACS analysis
[34] = tested on: SW1573; test: Cell cycle arrest in human SW1573 cells assessed as accumulation at S phase at 6 uM after 24 hrs by propidium iodide staining-based FACS analysis
[35] = tested on: WiDr; test: Cell cycle arrest in human WiDr cells assessed as accumulation at G2/M phase at 6 uM after 24 hrs by propidium iodide staining-based FACS analysis
[36] = tested on: WiDr; test: Cell cycle arrest in human WiDr cells assessed as decrease in accumulation at S phase at 6 uM after 24 hrs by propidium iodide staining-based FACS analysis
[37] = tested on: SW1573; test: Cell cycle arrest in human SW1573 cells assessed as accumulation at G2/M phase at 3 uM after 24 hrs by propidium iodide staining-based FACS analysis
[38] = tested on: HeLa; test: Cell cycle arrest in human HeLa cells assessed as accumulation at G2/M phase at 6 uM after 24 hrs by propidium iodide staining-based FACS analysis
[39] = tested on: HeLa; test: Cell cycle arrest in human HeLa cells assessed as accumulation at G2/M phase at 3 uM after 24 hrs by propidium iodide staining-based FACS analysis
[40] = tested on: HeLa; test: Cell cycle arrest in human HeLa cells assessed as decrease in accumulation at G0/G1 phase at 6 uM after 24 hrs by propidium iodide staining-based FACS analysis
[41] = tested on: T47D; test: Cell cycle arrest in human T47D cells assessed as increase in accumulation at sub G0 phase at 3 to 6 uM treated for 24 hrs measured after 24 hrs of drug washout by propidium iodide staining-based FACS analysis
[42] = tested on: T47D; test: Cell cycle arrest in human T47D cells assessed as accumulation at G2/M phase at 6 uM after 24 hrs by propidium iodide staining-based FACS analysis
[43] = tested on: SW1573; test: Cell cycle arrest in human SW1573 cells assessed as decrease in accumulation at G0/G1 phase at 6 uM after 24 hrs by propidium iodide staining-based FACS analysis
[44] = tested on: T47D; test: Cell cycle arrest in human T47D cells assessed as decrease in accumulation at S phase at 6 uM after 24 hrs by propidium iodide staining-based FACS analysis
[45] = tested on: WiDr; test: Cell cycle arrest in human WiDr cells assessed as increase in accumulation at sub G0 phase at 3 to 6 uM treated for 24 hrs measured after 24 hrs of drug washout by propidium iodide staining-based FACS analysis
[46] = tested on: HeLa; test: Cell cycle arrest in human HeLa cells assessed as decrease in accumulation at S phase at 3 uM after 24 hrs by propidium iodide staining-based FACS analysis

C=C(C(=O)OC)[C@@H]1CCC2=C[C@H](O)C[C@H](C)[C@@]2(C)C1
Activity [1]: Active
GI50 ([2]; read-out: GI50): 11 µM
GI50 ([2]; read-out: pGI50 (converted)): 4.95 µM
Activity [3]: Active
Activity [4]: Active
GI50 ([5]; read-out: GI50): 5 µM
GI50 ([5]; read-out: pGI50 (converted)): 5.3 µM
Activity [6]: Active
Activity [7]: Active
Activity [8]: Active
Activity [9]: Active
Activity [10]: Active
Activity [11]: Active
Activity [12]: Active
GI50 ([13]; read-out: GI50): 11 µM
GI50 ([13]; read-out: pGI50 (converted)): 4.97 µM
GI50 ([14]; read-out: GI50): 12 µM
GI50 ([14]; read-out: pGI50 (converted)): 4.91 µM
Activity [15]: Active
Activity [16]: Active
Activity [17]: Active
Activity [18]: Active
Activity [19]: Active
GI50 ([20]; read-out: GI50): 29 µM
GI50 ([20]; read-out: pGI50 (converted)): 4.54 µM
Activity [21]: Active
GI50 ([22]; read-out: GI50): 17 µM
GI50 ([22]; read-out: pGI50 (converted)): 4.77 µM

C=C(C=O)[C@@H]1CC[C@@]2(C)CCC[C@@](C)(O)[C@@H]2C1 [ILICIC ALDEHYDE]
Activity [23]: Active
GI50 ([2]; read-out: GI50): 1.8 µM
GI50 ([2]; read-out: pGI50 (converted)): 5.58 µM
pGI50 [5]: 5.72
GI50 ([5]; read-out: GI50): 2 µM
Activity [24]: Active
Activity [25]: Active
Activity [26]: Active
Activity [27]: Active
GI50 ([13]; read-out: GI50): 6.5 µM
GI50 ([13]; read-out: pGI50 (converted)): 5.19 µM
GI50 ([14]; read-out: GI50): 2.8 µM
GI50 ([14]; read-out: pGI50 (converted)): 5.56 µM
Activity [28]: Active
Activity [29]: Active
GI50 ([20]; read-out: GI50): 16 µM
GI50 ([20]; read-out: pGI50 (converted)): 4.8 µM
GI50 ([22]; read-out: GI50): 12 µM
GI50 ([22]; read-out: pGI50 (converted)): 4.92 µM
Activity [30]: Active

C=C(C(=O)OC)[C@@H]1CCC2=CC(=O)C[C@H](C)[C@@]2(C)C1 [TESSARIC ACID METHYL ESTER]
Activity [31]: Active
Activity [32]: Active
pGI50 [2]: 5.75
GI50 ([2]; read-out: GI50): 1.9 µM
Activity [33]: Active
Activity [34]: Active
Activity [35]: Active
GI50 ([5]; read-out: GI50): 3.8 µM
GI50 ([5]; read-out: pGI50 (converted)): 5.44 µM
Activity [36]: Active
Activity [37]: Active
Activity [38]: Active
Activity [39]: Active
GI50 ([13]; read-out: GI50): 2.4 µM
GI50 ([13]; read-out: pGI50 (converted)): 5.62 µM
Activity [40]: Active
Activity [41]: Active
pGI50 [14]: 5.63
GI50 ([14]; read-out: GI50): 2.4 µM
Activity [42]: Active
Activity [43]: Active
pGI50 [20]: 5.35
GI50 ([20]; read-out: GI50): 4.5 µM
Activity [44]: Active
Activity [45]: Active
pGI50 [22]: 5.74
GI50 ([22]; read-out: GI50): 2 µM
Activity [46]: Active
